Results reported in patent US12460243B2, “Mass spectrometry determination of the sensitivity or resistance of bacteria to an antibiotic” (priority 2019, dated 2025).
“And” between values parts separate entries of the source, which are not always exact repeats. Equal values may be shown once. Bridge positions count the residues as written; N and C are the ends. Square brackets hold non-standard residues; d marks the D form. Peptide text beside a SMILES is read from it. * marks the point of attachment. Heptanoyl(6-Me) = CC(C)CCCCC(=O)*; Dab = NCC[C@H](N)C(=O)O

Key:
Type in all cases: cell-based
Pseudomonas aeruginosa [1] = experiment: MALDI-TOF detection of released characteristic proteins, 10 min at 50° C., filtration (example V); details: colistin 20 μg/ml, 10 min 50° C.
Protocol: (§1) The tests were carried out using the following steps: • preparing a suspension of microorganism at 2 McF in water (suspension medium, bioMérieux reference 70700), • preparing a solution of colistin sulfate (Sigma reference C4461) at a concentration of 2× in pure water (taking into account the colistin titer indicated by the manufacturer).
(§2) The strains of A. baumannii (AB_S044, AB_S045, AB_S046, AB_R-E105) and of Pseudomonas aeruginosa (PA_S062, PA_SE64, PA_RE66, PA_RE68) are analyzed with the protocol described in example V. Thus, they are incubated in the presence of 20 μg/ml of colistin.

Acinetobacter baumannii [2] = experiment: as above; details: colistin 20 μg/ml, 10 min 50° C.
Protocol: as §1, §2

Escherichia coli [3] = experiment: MALDI-TOF detection of released characteristic proteins, 10 min at 50° C., filtration (examples V, VI); details: for Aire sous la courbe des pics observés, Protéine chaperonne de stress acide HdeB / Aire sous la courbe des pics observés, Protéine ribosomique 50S L29 / Aire sous la courbe des pics observés, Protéine ribosomique 50S L31 / Aire sous la courbe des pics observés, Protéine ribosomique 50S L33 / Aire sous la courbe des pics observés, SPIRAP (Stationary-Phase-Induced Ribosome-Associated Protein) / Ratio par protéine HdeB/Colistine / Ratio par protéine L29/Colistine / Ratio par protéine L31/Colistine / Ratio par protéine L33/Colistine / Ratio par protéine SIRAP/Colistine / Somme des ratios / sensitivity or resistance to colistin by MALDI-TOF: colistin 2.5 mg/ml, 10 min 50° C.; for classification by sum of the ratios against threshold: threshold 0.30
Protocol: as §1
In the context of this example, the tests were carried out with the method of the present invention to determine the sensitivity or resistance of several bacteria of several strains such as in example V and comprising the following steps: • measuring the intensity of each peak observed, • finding a ratio between the sum of the intensities of the protein peaks of the microorganism and at least 1 peak of colistin. • determining the status, resistant or sensitive to colistin, as a function of the sum of the ratios obtained and of a threshold fixed for each species. • a resistant microorganism will have a low ratio and a sensitive microorganism will have a high ratio.
Firstly, the same strains of E. coli (EC_S10, EC_S15, EC_R16, EC_R17), used previously, are studied and the proteins characteristic of the species E. coli are analyzed. They are the following proteins: the stationary-phase-induced ribosome-associated protein (SPIRAP), the acid stress chaperone HdeB and the 50S ribosomal proteins L29, L31 and L33.

Pseudomonas aeruginosa [4] = experiment: microdilution in broth (reference method); details: by microdilution in broth
Protocol: (§3) So as to be able to evaluate the efficacy of the method according to the invention, the different strains were analyzed beforehand by microdilution in broth in order to determine their status (sensitive or resistant). This method is regarded as the reference method by the CLSI and EUCAST.
(§4) As before, the different strains were analyzed beforehand by microdilution in broth in order to determine their status (sensitive or resistant).

Acinetobacter baumannii [5] = experiment: microdilution in broth (reference method); details: by microdilution in broth
Protocol: as §3, §4

Escherichia coli [6] = experiment: MALDI-TOF detection of characteristic proteins released after incubation with colistin (examples II-IV, centrifugation); details: colistin 2.5 mg/ml
Protocol: This test was carried out using the following steps: • preparing a suspension of strains EC_S and EC_R of E. coli at 1 McFarland (McF) in water (suspension medium, bioMérieux reference 70700), • preparing a solution of colistin sulfate (Sigma, reference C4461) at a concentration of 5 mg/ml in pure water (taking into account the colistin titer indicated by the manufacturer), • mixing 250 μl of each suspension with 250 μl of colistin to obtain a solution of microorganism at 0.5 McF and at a concentration of 2.5 mg/ml of colistin, • homogenizing using a vortex for 5 seconds, • incubating the mixture for 4 hours at 37° C., • homogenizing using a vortex for 5 seconds, • centrifuging at 4700 rev/min (1500 g) for 5 minutes, • depositing 1 μl of the supernatant on a disposable target (bioMérieux reference 410893), • depositing 1 μl of HCCA matrix (bioMérieux, reference 411071) on the drop of supernatant, • analyzing the sample by MALDI-TOF spectrometry on VITEK-MS Plus (bioMérieux) with a method suitable for microbiology, i.e. with a positive ionization mode and a mass range from 2000 to 20 000 Th. • accumulating 100 profiles from 10 firings and comparing the data with the data contained in the databases for E. coli, • observing the presence or absence of protein peaks characteristic of E. coli. • determining the sensitivity to colistin if proteins characteristic of E. coli are detected or the resistance if no protein of E. coli is detected.
The E. coli strains S and R16 are analyzed with the same protocol as in example II apart from the incubation time of 30 minutes at 37° C. The S strain is sensitive to colistin and the R16 strain is resistant to colistin.
The same E. coli strains R16 and S are analyzed with the same protocol as in example III apart from incubation at 50° C.

CC(C)CCCCC(=O)N[C@@H](CCN)C(=O)N[C@H](C(=O)N[C@@H](CCN)C(=O)N[C@H]1CCNC(=O)[C@H]([C@@H](C)O)NC(=O)[C@H](CCN)NC(=O)[C@H](CCN)NC(=O)[C@H](CC(C)C)NC(=O)[C@@H](CC(C)C)NC(=O)[C@H](CCN)NC1=O)[C@@H](C)O [colistin] ({Heptanoyl(6-Me)}-[Dab]T[Dab][Dab][Dab][dL]L[Dab][Dab]T; lactam 4-C)
sensitivity or resistance to colistin by MALDI-TOF (Pseudomonas aeruginosa [1]; strain PA_RE66): resistant
sensitivity or resistance to colistin by MALDI-TOF (Pseudomonas aeruginosa [1]; strain PA_RE68): resistant
sensitivity or resistance to colistin by MALDI-TOF (Pseudomonas aeruginosa [1]; strain PA_S062): sensitive
sensitivity or resistance to colistin by MALDI-TOF (Pseudomonas aeruginosa [1]; strain PA_SE64): sensitive
sensitivity or resistance to colistin by MALDI-TOF (Acinetobacter baumannii [2]; strain AB_R-E105): resistant
sensitivity or resistance to colistin by MALDI-TOF (Acinetobacter baumannii [2]; strain AB_S044): sensitive
sensitivity or resistance to colistin by MALDI-TOF (Acinetobacter baumannii [2]; strain AB_S045): sensitive
sensitivity or resistance to colistin by MALDI-TOF (Acinetobacter baumannii [2]; strain AB_S046): sensitive
Aire sous la courbe des pics observés, Protéine chaperonne de stress acide HdeB (Escherichia coli [3]; strain EC-R16): 0.00 unité arbitraire
Aire sous la courbe des pics observés, Protéine ribosomique 50S L29 (Escherichia coli [3]; strain EC-R16): 0.00 unité arbitraire
Aire sous la courbe des pics observés, Protéine ribosomique 50S L31 (Escherichia coli [3]; strain EC-R16): 0.00 unité arbitraire
Aire sous la courbe des pics observés, Protéine ribosomique 50S L33 (Escherichia coli [3]; strain EC-R16): 0.00 unité arbitraire
Aire sous la courbe des pics observés, SPIRAP (Stationary-Phase-Induced Ribosome-Associated Protein) (Escherichia coli [3]; strain EC-R16): 0.00 unité arbitraire
Ratio par protéine HdeB/Colistine (Escherichia coli [3]; strain EC-R16): 0.00
Ratio par protéine L29/Colistine (Escherichia coli [3]; strain EC-R16): 0.00
Ratio par protéine L31/Colistine (Escherichia coli [3]; strain EC-R16): 0.00
Ratio par protéine L33/Colistine (Escherichia coli [3]; strain EC-R16): 0.00
Ratio par protéine SIRAP/Colistine (Escherichia coli [3]; strain EC-R16): 0.00
Somme des ratios (Escherichia coli [3]; strain EC-R16): 0.00
classification by sum of the ratios against threshold (Escherichia coli [3]; strain EC-R16): resistant (the strains whose sum of the ratios is strictly below 0.30 will be considered as resistant)
Aire sous la courbe des pics observés, Protéine chaperonne de stress acide HdeB (Escherichia coli [3]; strain EC-R17): 0.00 unité arbitraire
Aire sous la courbe des pics observés, Protéine ribosomique 50S L29 (Escherichia coli [3]; strain EC-R17): 0.00 unité arbitraire
Aire sous la courbe des pics observés, Protéine ribosomique 50S L31 (Escherichia coli [3]; strain EC-R17): 0.00 unité arbitraire
Aire sous la courbe des pics observés, Protéine ribosomique 50S L33 (Escherichia coli [3]; strain EC-R17): 0.00 unité arbitraire
Aire sous la courbe des pics observés, SPIRAP (Stationary-Phase-Induced Ribosome-Associated Protein) (Escherichia coli [3]; strain EC-R17): 0.00 unité arbitraire
Ratio par protéine HdeB/Colistine (Escherichia coli [3]; strain EC-R17): 0.00
Ratio par protéine L29/Colistine (Escherichia coli [3]; strain EC-R17): 0.00
Ratio par protéine L31/Colistine (Escherichia coli [3]; strain EC-R17): 0.00
Ratio par protéine L33/Colistine (Escherichia coli [3]; strain EC-R17): 0.00
Ratio par protéine SIRAP/Colistine (Escherichia coli [3]; strain EC-R17): 0.00
Somme des ratios (Escherichia coli [3]; strain EC-R17): 0.00
classification by sum of the ratios against threshold (Escherichia coli [3]; strain EC-R17): resistant (the strains whose sum of the ratios is strictly below 0.30 will be considered as resistant)
Ratio par protéine HdeB/Colistine (Escherichia coli [3]; strain EC-S10): 0.15
Ratio par protéine L33/Colistine (Escherichia coli [3]; strain EC-S10): 0.15
Somme des ratios (Escherichia coli [3]; strain EC-S10): 0.30 and 0.39
classification by sum of the ratios against threshold (Escherichia coli [3]; strain EC-S10): sensitive (the strains whose sum of the ratios is greater than or equal to 0.30 will be considered as sensitive)
Aire sous la courbe des pics observés, Protéine chaperonne de stress acide HdeB (Escherichia coli [3]; strain EC-S15): 97.46 unité arbitraire and 60.9 unité arbitraire
Aire sous la courbe des pics observés, Protéine ribosomique 50S L33 (Escherichia coli [3]; strain EC-S15): 86.71 unité arbitraire and 68.12 unité arbitraire
Aire sous la courbe des pics observés, SPIRAP (Stationary-Phase-Induced Ribosome-Associated Protein) (Escherichia coli [3]; strain EC-S15): 0.00 unité arbitraire
Ratio par protéine HdeB/Colistine (Escherichia coli [3]; strain EC-S15): 0.21
Ratio par protéine L29/Colistine (Escherichia coli [3]; strain EC-S15): 0.02 and 0.01
Ratio par protéine L31/Colistine (Escherichia coli [3]; strain EC-S15): 0.02 and 0.04
Ratio par protéine L33/Colistine (Escherichia coli [3]; strain EC-S15): 0.26 and 0.19
Somme des ratios (Escherichia coli [3]; strain EC-S15): 0.55 and 0.44
classification by sum of the ratios against threshold (Escherichia coli [3]; strain EC-S15): sensitive (the strains whose sum of the ratios is greater than or equal to 0.30 will be considered as sensitive)
sensitivity or resistance to colistin by MALDI-TOF (Escherichia coli [3]; strain EC_R16): resistant
sensitivity or resistance to colistin by MALDI-TOF (Escherichia coli [3]; strain EC_R17): resistant
sensitivity or resistance to colistin by MALDI-TOF (Escherichia coli [3]; strain EC_S10): sensitive
sensitivity or resistance to colistin by MALDI-TOF (Escherichia coli [3]; strain EC_S15): sensitive
Sensible ou Résistante (Pseudomonas aeruginosa [4]; strain PA_RE66): Résistante
Sensible ou Résistante (Pseudomonas aeruginosa [4]; strain PA_RE68): Résistante
Sensible ou Résistante (Pseudomonas aeruginosa [4]; strain PA_S062): Sensible
Sensible ou Résistante (Pseudomonas aeruginosa [4]; strain PA_SE64): Sensible
Sensible ou Résistante (Acinetobacter baumannii [5]; strain AB_R-E105): Résistante
Sensible ou Résistante (Acinetobacter baumannii [5]; strain AB_S044): Sensible
Sensible ou Résistante (Acinetobacter baumannii [5]; strain AB_S045): Sensible
Sensible ou Résistante (Acinetobacter baumannii [5]; strain AB_S046): Sensible
sensitivity or resistance to colistin by MALDI-TOF (Escherichia coli [6]; strain EC_R, 4 h at 37° C.): resistant
sensitivity or resistance to colistin by MALDI-TOF (Escherichia coli [6]; strain EC_S, 4 h at 37° C.): sensitive
sensitivity or resistance to colistin by MALDI-TOF (Escherichia coli [6]; strain R16, 30 min at 37° C.): resistance
sensitivity or resistance to colistin by MALDI-TOF (Escherichia coli [6]; strain R16, 30 min at 50° C.): resistance
sensitivity or resistance to colistin by MALDI-TOF (Escherichia coli [6]; strain S, 30 min at 37° C.): sensitive
sensitivity or resistance to colistin by MALDI-TOF (Escherichia coli [6]; strain S, 30 min at 50° C.): sensitivity
